Source: ChEMBL document CHEMBL5149996, “Structure-Based Optimization and Discovery of M3258, a Specific Inhibitor of the Immunoproteasome Subunit LMP7 (β5i)” (J Med Chem, 2021)

Columns and labels:
[1] = target: T1, Proteasome subunit beta type-9 (Homo sapiens, UniProt P28065); assay: Inhibition of human 20S immunoproteasome beta-1i subunit using (Ac-PAL)2R110 as substrate preincubated for 2 hrs followed by substrate addition and measured after 1 hr by fluorescence intensity assay
T1 sequence (P28065 whole entry): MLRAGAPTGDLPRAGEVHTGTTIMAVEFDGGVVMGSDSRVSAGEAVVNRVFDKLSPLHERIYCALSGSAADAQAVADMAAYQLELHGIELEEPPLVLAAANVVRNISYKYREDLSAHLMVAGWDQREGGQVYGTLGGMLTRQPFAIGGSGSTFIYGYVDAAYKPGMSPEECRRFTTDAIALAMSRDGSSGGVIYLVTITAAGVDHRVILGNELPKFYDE

[2] = target: T2, Proteasome subunit beta type-10 (Homo sapiens, UniProt P40306); assay: Inhibition of human 20S immunoproteasome beta-2i subunit using Ac-RLR-AMC as substrate preincubated for 2 hrs followed by substrate addition and measured after 1 hr by fluorescence intensity assay
T2 sequence (P40306 whole entry): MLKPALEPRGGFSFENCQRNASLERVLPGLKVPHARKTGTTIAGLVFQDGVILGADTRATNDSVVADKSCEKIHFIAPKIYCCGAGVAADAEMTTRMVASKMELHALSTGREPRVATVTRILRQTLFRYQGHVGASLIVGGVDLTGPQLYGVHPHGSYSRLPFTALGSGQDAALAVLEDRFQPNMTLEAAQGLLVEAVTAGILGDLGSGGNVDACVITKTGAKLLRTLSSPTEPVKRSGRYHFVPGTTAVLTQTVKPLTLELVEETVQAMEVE

[3] = target: T3, Proteasome subunit beta type-6 (Homo sapiens, UniProt P28072); assay: Inhibition of human 20S […] beta1 subunit using Ac-nLPnLD-AMC as substrate preincubated for 2 hrs followed by substrate addition and measured after 1 hr by fluorescence intensity assay
T3 sequence (P28072 whole entry): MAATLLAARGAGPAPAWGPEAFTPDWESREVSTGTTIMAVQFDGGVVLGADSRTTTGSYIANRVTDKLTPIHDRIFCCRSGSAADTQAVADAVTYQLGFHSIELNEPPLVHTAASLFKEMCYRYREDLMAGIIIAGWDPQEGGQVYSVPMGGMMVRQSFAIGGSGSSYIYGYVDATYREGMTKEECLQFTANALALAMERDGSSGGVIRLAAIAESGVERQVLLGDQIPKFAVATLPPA

[4] = target: T4, Proteasome subunit beta type-7 (Homo sapiens, UniProt Q99436); assay: Inhibition of human 20S proteasome beta2 subunit using Ac-RLR-AMC as substrate preincubated for 2 hrs followed by substrate addition and measured after 1 hr by fluorescence intensity assay
T4 sequence (Q99436 whole entry): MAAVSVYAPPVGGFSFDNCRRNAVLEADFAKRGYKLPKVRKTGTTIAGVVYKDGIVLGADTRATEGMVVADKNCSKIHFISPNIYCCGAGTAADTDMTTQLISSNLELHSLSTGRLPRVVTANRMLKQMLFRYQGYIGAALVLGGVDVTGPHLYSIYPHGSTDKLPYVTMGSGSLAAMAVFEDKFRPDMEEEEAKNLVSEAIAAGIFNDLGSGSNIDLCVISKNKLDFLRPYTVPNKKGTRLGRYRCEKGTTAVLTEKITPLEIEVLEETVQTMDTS

[5] = target: T5, Proteasome subunit beta type-8 (Homo sapiens, UniProt P28062); assay: Inhibition of human 20S immunoproteasome beta-5i subunit using Suc-LLVY-AMC as substrate preincubated for 2 hrs followed by substrate addition and measured after 1 hr by fluorescence intensity assay
T5 sequence (P28062 whole entry): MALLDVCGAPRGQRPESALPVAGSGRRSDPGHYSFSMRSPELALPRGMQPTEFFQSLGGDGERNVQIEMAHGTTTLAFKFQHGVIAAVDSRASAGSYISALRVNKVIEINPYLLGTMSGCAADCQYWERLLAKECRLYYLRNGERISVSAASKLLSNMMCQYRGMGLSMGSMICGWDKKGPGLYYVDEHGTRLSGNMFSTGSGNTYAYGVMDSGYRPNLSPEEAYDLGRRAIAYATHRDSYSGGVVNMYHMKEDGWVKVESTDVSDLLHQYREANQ

[6] = species: Homo sapiens; assay: Selectivity ratio of IC50 for inhibition of 20S proteasome beta5 subunit in human A549 cells to IC50 for inhibition of 20S immunoproteasome beta-5i subunit in human PBMC; type: cell-based
[7] = target: T5, Proteasome subunit beta type-8; assay: Inhibition of 20S immunoproteasome beta-5i subunit in human PBMC using Ac-ANW-luciferin substrate preincubated for 2 hrs followed by substrate addition and measured after 30 mins by luminometric analysis; type: cell-based
[8] = target: T6, Proteasome Macropain subunit MB1 (Homo sapiens, UniProt P28074); assay: Inhibition of human 20S proteasome beta5 subunit using Suc-LLVY-AMC as substrate preincubated for 2 hrs followed by substrate addition and measured after 1 hr by fluorescence intensity assay
T6 sequence (P28074 whole entry): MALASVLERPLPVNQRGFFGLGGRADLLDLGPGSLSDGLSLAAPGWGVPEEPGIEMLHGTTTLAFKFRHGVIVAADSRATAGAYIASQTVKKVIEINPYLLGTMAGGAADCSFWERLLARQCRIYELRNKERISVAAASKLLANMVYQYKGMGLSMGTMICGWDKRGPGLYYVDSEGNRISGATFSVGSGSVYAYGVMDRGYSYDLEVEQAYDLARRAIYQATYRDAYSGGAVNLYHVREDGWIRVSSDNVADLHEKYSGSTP

[9] = Clearance in human hepatocytes measured per million of cells; type: ADME, cell-based, Hepatocyte; conditions: read-out: CLH
[10] = Intrinsic clearance in human liver microsomes measured per mg protein; type: ADME, Microsome
[11] = target: T6, Proteasome Macropain subunit MB1; assay: Inhibition of 20S proteasome beta5 subunit in human A549 cells using Suc-LLVY-luciferin substrate preincubated for 2 hrs followed by substrate addition and measured after 30 mins by luminometric analysis; type: cell-based
[12] = Clearance in mouse hepatocytes measured per million of cells; type: ADME, cell-based, Hepatocyte; conditions: read-out: CLH
[13] = Lipophilicity, log P of the compound; type: physicochemical; conditions: octanol/water
[14] = Intrinsic clearance in mouse liver microsomes measured per mg protein; type: ADME, Microsome; conditions: read-out: CLH
[15] = species: Homo sapiens; assay: Selectivity ratio of IC50 for inhibition of human 20S proteasome beta5 subunit to IC50 for inhibition of human 20S immunoproteasome beta-5i subunit
[16] = Half life in iv dosed mouse; type: ADME, organism-based; conditions: in vivo
[17] = Kinetic solubility of the compound; type: physicochemical; conditions: read-out: Kinetic_solubility
[18] = Oral bioavailability in mouse at 0.5 mg/kg; type: ADME, organism-based; conditions: in vivo
[19] = Distribution coefficient, log D of the compound; type: physicochemical; conditions: octanol/water
[20] = Clearance in iv dosed mouse; type: ADME, organism-based; conditions: in vivo
[21] = Volume of distribution at steady state in iv dosed mouse; type: ADME, organism-based; conditions: in vivo
[22] = tested on: Hepatocyte; assay: Cytotoxicity against Wistar Han rat hepatocytes assessed as depletion of ATP content up to 500 uM incubated for 48 to 72 hrs by CellTiter-Glo luminescent assay; type: toxicity, cell-based; conditions: time 48-72 hrs
[23] = tested on: Hepatocyte; assay: Cytotoxicity against human primary hepatocytes assessed as depletion of ATP content up to 500 uM incubated for 48 to 72 hrs by CellTiter-Glo luminescent assay; type: toxicity, cell-based; conditions: time 48-72 hrs
[24] = tested on: HepG2; assay: Cytotoxicity against human HepG2 cells assessed as depletion of ATP content up to 500 uM incubated for 48 to 72 hrs by CellTiter-Glo luminescent assay; type: toxicity, cell-based; conditions: hepg2, 500 µM, time 48-72 hrs

Compound | IC50 [1] [nM] | IC50 [2] [nM] | IC50 [3] [nM] | IC50 [4] [nM] | IC50 [5] [nM] | IC50 [7] [nM] | IC50 [8] [nM] | IC50 [11] [nM] | logP [13] | Ratio IC50 [15] | solubility kinetic [17] [µM] | bioavailability [18] [%] | logD [19] | Ratio IC50 [6] | CLH [10] [µL/min/mg] | microsomal CLint [14] [µL/min/mg] | also measured
O=C(N[C@@H](Cc1coc2ccccc12)B(O)O)[C@H]1C[C@@H]2CC[C@H]1O2 | – | – | – | – | 15 | 19.6 | 6500 | 2440 | 2.25 | 444 | – | – | – | 124 | < 10 | 16 | hepatocyte CLint [9]: 6.6 µL/min/1e6 cells; hepatocyte CLint [12]: 15.9 µL/min/1e6 cells
N#Cc1ccccc1CC(=O)N[C@@H](C[C@@H]1COc2ccccc21)B(O)O | – | – | – | – | 3.1 | 20 | 2400 | 2520 | 1.75 | 758 | > 200 | 13 | 1.3 | 126 | < 10 | 37 | half-life [16]: 42.6 min; clearance [20]: 32.8 mL/min/kg; Vd ([21]; read-out: Vdss): 1.88 L/kg
CC(C)C[C@H](NC(=O)[C@H](Cc1ccccc1)NC(=O)c1cnccn1)B(O)O [BORTEZOMIB] | – | – | – | – | – | – | – | – | – | – | – | – | – | – | – | – | Activity [22]: Toxic; Activity [23]: Toxic; Activity [24]: Toxic

Continued, in another order:

IC50 [1] [nM] | IC50 [2] [nM] | IC50 [3] [nM] | IC50 [4] [nM] | IC50 [5] [nM] | IC50 [7] [nM] | IC50 [8] [nM] | IC50 [11] [nM] | logP [13] | Ratio IC50 [15] | solubility kinetic [17] [µM] | bioavailability [18] [%] | logD [19] | Compound | Ratio IC50 [6] | CLH [10] [µL/min/mg] | microsomal CLint [14] [µL/min/mg] | also measured
2.7 | 4870 | 64 | > 30000 | 2.9 | – | – | – | – | – | – | – | – | CC(C)C[C@H](NC(=O)CNC(=O)c1cc(Cl)ccc1Cl)B(O)O | – | – | – | –
11 | 4000 | 8500 | > 30000 | 1.7 | – | 41 | – | – | 24 | – | – | – | CCc1cccc(C[C@H](NC(=O)[C@H](Cc2ccccc2)NC(=O)c2cnccn2)B(O)O)c1 | – | – | – | –
– | – | – | – | 2.1 | 14 | 900 | 573 | 3.5 | 419 | > 200 | 37 | 1 | O=C(Cc1ccccc1)N[C@@H](Cc1coc2ccccc12)B(O)O | 41 | – | – | t1/2 ([16]; iv): 22.2 min; CL ([20]; iv): 3 mL/min/kg; Vdss ([21]; iv): 2.25 L/kg
